Experiment: Human HepG2 cell viability assay in 384 well format
Type: toxicity, cell-based
Design: dose 125 nL, time 70.5 hour; concentration not given beside the values
Details: HepG2 cells, read-out: Inhibition

| Structure (SMILES) | cytotoxicity at 70.5 h [%] |
| --- | --- |
| COc1ccccc1[C@@H]1CN(Cc2cnc(N(C)C)nc2)C[C@H]1C(=O)O | -6.22 |
| Cc1ccc2oc(=O)n(CCC(=O)N3CCCC4(CNC(=O)O4)C3)c2c1 (configuration not stated) | -1.82 |
| CCCN1CCCC2(CCN(C(=O)CCCn3cncn3)C2)C1=O (configuration not stated) | -4.88 |
| CCn1ccnc1CN(C)c1cc(C2CCCNC2)nc(C)n1 (configuration not stated) | -1.8 |
| COC[C@@]12CC[C@@H](N3CCOCC3)C[C@H]1CCN(c1nc(CO)cs1)C2 | 10.8 |
| CCOCc1nc2c(c(N3CC=CC3)n1)CCN(Cc1ccco1)CC2 | -3.14 |
| COc1cnc(N2C[C@@H](CN3CCOCC3)C[C@H](CO)C2)nc1 | -2.56 |
| CC(C)Oc1ccc(CN2CCC(Cc3nnc(CO)n3C)CC2)cc1 | -0.794 |
| Cn1c(CN2CCC(O)CC2)nnc1C1CCCN(c2ccncc2)C1 (configuration not stated) | -9.58 |
| COc1ccc(C(C(=O)O)N(C)Cc2ccon2)cc1Cl (configuration not stated) | -4.56 |
| CCC[C@H]1CN(S(=O)(=O)c2ccc(-c3c(C)noc3C)s2)C[C@@H]1N | -4.66 |
| O=C(CCCn1ccnc1)N[C@H]1CN(C2CCCC2)C[C@@H]1C1CC1 | -11.7 |
| COCc1c(C(=O)N2CCCC(N(C)Cc3ccccc3)C2)noc1C (configuration not stated) | -3.62 |
| Cc1cc(C)n(Cc2cc(C(=O)N3CCCC3c3nccs3)n[nH]2)n1 (configuration not stated) | -13.2 |
| Cn1ncc(N2CCC(CNC3Cc4ccccc4C3)C2)cc1=O (configuration not stated) | 3.7 |
| COc1ccccc1OC1CCN(C(=O)c2cnc(C)cc2C)CC1 | -5 |
| O=C1CCOCCN1Cc1ccc(Cl)c(F)c1 | 23.1 |
| COCc1cc(NCc2ccccc2-n2cncn2)ncn1 | -10.8 |
| COCc1ncc(CN2CCC3(CCNC(=O)CC3)CC2)cn1 | -5.72 |
| CCOC(=O)CC(C)Nc1nc(C(C)(C)C)nc2c1cnn2C (configuration not stated) | 22.1 |
| CCCn1ncc(-c2ccnc(NC3CCCc4ccccc43)n2)c1C (configuration not stated) | 55.9 |
| O=C1NCCN(Cc2ccoc2)C1CC(=O)N1CCc2sccc2C1 (configuration not stated) | -0.766 |
| CCCS(=O)(=O)N1CCC2(CCC(=O)N(CCc3cccnc3)C2)CC1 | -10.9 |

| Structure (SMILES) | cytotoxicity at 70.5 h [%] |
| --- | --- |
| CCc1nc(C)c([C@H]2CN(C)C[C@@H]2C(=O)NCc2ccccn2)[nH]1 | -2.64 |
| COc1ccc(-n2cccn2)c(CN2CCC3(CCCNC3)C2)c1 (configuration not stated) | -7.03 |
| Cc1cc(Cn2cc(C(C)Cc3ccc4c(c3)OCO4)nn2)n[nH]1 (configuration not stated) | -7.62 |
| COc1nc2c(cc1C(=O)N1CCCCC1c1ccccn1)CCC2 (configuration not stated) | -6.36 |
| Cc1cc(NCc2nnc3n2CCC3)n2nc(C)c(C)c2n1 | -12.3 |
| O=C(NCCN1CCOC1=O)c1cnc(-c2cccnc2)nc1 | -3.86 |
| CC1=C(C(=O)N(C)Cc2noc3c2CCCC3)C(C)NC(=O)N1 (configuration not stated) | -0.0225 |
| c1cc(-c2cscn2)cc(N2CCC(NCCc3cccs3)CC2)c1 | 0.55 |
| COc1cc(F)c(-n2cnc(CCNC(C)=O)c2)cc1F | -10.8 |
| O=C1CN(Cc2cn(CC3CCN(C4CCSCC4)CC3)nn2)CCN1 | 20.3 |
| CCC1CN(Cc2nnc(C3CC3)o2)CCC(=O)N1Cc1ccccc1 (configuration not stated) | 20.4 |
| Cc1ccc(CN(CCN(C)C)Cc2nc3ccccc3[nH]2)s1 | 11.2 |
| COCCC1(CO)CCCN(Cc2ccc(C#N)cc2)C1 (configuration not stated) | -1.95 |
| CSCCCN1C[C@H](NC(=O)c2ccc(C#N)nc2)[C@@H](C2CC2)C1 | -0.265 |
| CCc1nc(NC(=O)NCCc2cscn2)nn1C | -4.65 |
| NC(=O)c1ccc(-c2nc3c(c(=O)[nH]2)CCNC3)cc1 | -2.1 |
| Cc1noc(C)c1CN1C(=O)[C@H]2CC[C@@H]1CN(Cc1cscn1)C2 | -6.64 |
| O=C(NCc1cc2n(n1)CCCN(Cc1ccc(Cl)s1)C2)C1CCC1 | -10.1 |
| CC(C)c1cc(C2CCCN2C(=O)CN2C(=O)OC(C)(C)C2=O)no1 (configuration not stated) | -9.43 |
| c1ccc(CCCN2CCCN(c3ncnc4[nH]ccc34)CC2)cc1 | -15.3 |
| O=S(=O)(NCc1ccccc1)N1CCCN(c2ccncc2)CC1 | 28.7 |
| CCC(C)Oc1ccc(CNCCc2c[nH]cn2)cc1Cl (configuration not stated) | 24.1 |
| Cc1nn(C)c2nc(N(CCOc3ccccc3)CC3CCCO3)sc12 (configuration not stated) | 21 |

| Structure (SMILES) | cytotoxicity at 70.5 h [%] |
| --- | --- |
| O=C(CCc1ccco1)N1CCc2[nH]nc(COc3ccccc3)c2C1 | 51.5 |
| CCc1ncc(C(=O)NCC2CCN(Cc3ccncc3)CC2)cn1 | -5.64 |
| CN(C)c1ncnc2c1CCN(C(=O)CN1CCCCC1)C2 | -7.37 |
| CC(C)CNS(=O)(=O)c1ccc(C(=O)N(C)CCc2cn[nH]c2)cc1 | -8.39 |
| CN(CC1(CO)CCC1)C(=O)c1cc(COc2ccccc2F)[nH]n1 | -3.92 |
| CN(C)C(C(=O)N1CCN(S(N)(=O)=O)CC1)c1ccccc1F (configuration not stated) | -3.36 |
| O=C1CCC2(CCNCC2)CN1CCCNc1cccnc1 | -0.123 |
| CCCn1cc(C(=O)NCCc2ccncc2)c(C)n1 | -6.81 |
| COc1c(F)cc(CN2CCCC3(CC2)CNC(=O)O3)cc1Cl (configuration not stated) | 5.1 |
| OCC(CO)N1CCC(c2nnc(Cn3ccnc3)n2C2CC2)CC1 | 12.4 |
| Cc1ccc(CN2CCN(c3ncnc4[nH]cnc34)CC2CCO)cc1 (configuration not stated) | 4.25 |
| Cc1noc(C)c1CN1CCCC1c1nc(-c2ccccc2)no1 (configuration not stated) | -2.38 |
| Cc1ccc(C)c2c(O)cc(CNCC(N)=O)nc12 | -0.585 |
| c1cn(CC2CC2)c(C2CCN(CCC3CCOC3)CC2)n1 (configuration not stated) | 21.7 |
| CN(C(=O)c1cccnc1)C1CCCN(CCc2ccccc2)C1 (configuration not stated) | -5.02 |
| CC(Oc1ccc2c(c1)OCO2)C(=O)N1CCC(N2CCOCC2)CC1 (configuration not stated) | -2.72 |
| Cc1ccccc1C(=O)NC[C@@H]1CCN(C(=O)c2cccn2C)C[C@H]1O | -13 |
| CCn1ccc(C(=O)N2CCCN(Cc3ccccc3F)CC2)cc1=O | 17.5 |
| CCCn1ncc(C(=O)N(C)Cc2n[nH]c3c2CCC3)c1C | -11.7 |
| CCC[C@H]1CN(Cc2cncn2C)C[C@@H]1NC(=O)C1(COC)CCC1 | -9.83 |
| O=C(Cc1cccnc1)N1C[C@H]2CC[C@@H]1CN(Cc1ccc(F)cc1)C2 | 9.62 |
| COc1ccccc1OC1CCN(Cc2cccnc2)CC1 | -3.86 |
| Cc1cc(C)c2c(C(=O)N(C)C)cc(-c3cnc(N)nc3)nc2c1 | -5.25 |

| Structure (SMILES) | cytotoxicity at 70.5 h [%] |
| --- | --- |
| CN(C)c1ccc(CN2C[C@H]3CC[C@@H]2CN(C2CCOCC2)C3)cn1 | -3.42 |
| c1ccc(Cn2cccn2)c(CN2CCCCC2CCn2ccnc2)c1 (configuration not stated) | 0.54 |
| CC(C)(C)NC(=O)N1CCCn2nc(C(=O)Nc3ccccc3)cc2C1 | -12.5 |
| Cc1cc(C(=O)N2CC[C@@]3(O)CCN(C(=O)N4CCCC4)C[C@H]3C2)no1 | -4 |
| COc1cccc(-c2noc(-c3ccc(N4CC(N)C4)nc3)n2)c1OC | -0.582 |
| CN(C)CC1(O)CCCN(C(=O)Cn2ccc3ccccc32)CC1 (configuration not stated) | 29.7 |
| CCC(CO)N(C/C(C)=C/c1ccco1)Cc1ccco1 (configuration not stated) | -3.88 |
| CN(C)CC1(O)CCCN(C(=O)c2ccccc2-n2cccn2)C1 (configuration not stated) | 17.7 |
| CCC(Nc1nccc(C2CCCC2)n1)c1ncccc1C (configuration not stated) | 14.1 |
| CCn1cc(CN2CCC(CNC(C)=O)CC2)cc1C#N | 0.676 |
| CC(C)N1CC2(CCCN(c3ncc(Cl)cc3F)C2)CCC1=O (configuration not stated) | -4.82 |
| CC(=O)N[C@@H]1CN(Cc2cccs2)C[C@H]1c1ccc(C)o1 | 1.3 |
| Cc1nc(CN2CCCC(CCc3ccccc3C(F)(F)F)C2)no1 (configuration not stated) | -8.94 |
| CN(C)c1nc(NCc2cccnc2N)ncc1F | 0.515 |
| CC(C)CN1CCn2nc(CNc3ncnc4[nH]ccc34)cc2C1 | 7.26 |
| Cc1ccccc1C(C(=O)NCCn1cccc1)N(C)C (configuration not stated) | -9.04 |
| CC(C)N1CCCCC1CCn1cnc2cc(C(F)(F)F)ccc2c1=O (configuration not stated) | -12.9 |
| CCCN(Cc1ccc(OC)nc1)Cc1ccccc1OC | 12.5 |
| CN(C)C(=O)CCC1CCCN(Cc2ccc(-c3cccnc3)cc2)C1 (configuration not stated) | -10.4 |
| O=C(Nc1cccc2c1CCCC2)c1cccc(CN2CC[C@H](O)C2)c1 | -4.36 |
| OC1(CN2CCCC2)CCCN(Cc2c[nH]c(CC3CCCC3)n2)C1 (configuration not stated) | -4.13 |
| Cc1n[nH]c(C)c1CCC(=O)N(C)Cc1cn[nH]c1-c1ccc(F)cc1 | 5.04 |
| CCC(C)CN1CCC(n2cc(C3CCCCC3)nn2)CC1 (configuration not stated) | 14.7 |

| Structure (SMILES) | cytotoxicity at 70.5 h [%] |
| --- | --- |
| FC(F)(F)c1ccc(-n2ccnc2-c2cc3n(n2)CCNC3)cn1 | 12.7 |
| Cc1noc(CN(C)C(=O)c2n[nH]c(N)c2-c2ccccc2)n1 | 2.44 |
| Cc1nccn1-c1ccc(N2CCC(NC(C)C(C)C)CC2)cc1 (configuration not stated) | -2 |
| Cc1cc(C(F)(F)F)cc(=O)n1CCCn1cnnn1 | -11.2 |
| CCc1ccc(CN(C/C=C/c2ccccc2)CCOC)nc1 | -2.77 |
| COC[C@H]1CCC[C@H]1Nc1ncnc2c1CCNCC2 | -3.38 |
| O=C(CSCC1CC1)N1CCCN(Cc2ccc(F)cc2)CC1 | -11.1 |
| CC(C)Cn1c(=O)n(CCn2cc(Cl)cn2)c2cc(C(=O)O)cnc21 | -7.3 |
| CCn1cnnc1CN(C)Cc1c[nH]nc1-c1ccc(F)cc1 | -1.22 |
| CC(C)Cc1nc(CO)n(-c2ccc3c(c2)OCCO3)n1 | 1.83 |
| CC(NC(=O)c1cc2n(n1)CCCN(C(C)C)C2)c1cn2ccsc2n1 (configuration not stated) | -16.5 |
| CC(C)SCC(=O)NCc1cc2n(n1)CCCN(C1CCCCC1)C2 | 25.3 |
| CN(CC(=O)N1CCOCC(CO)C1)Cc1ccccn1 (configuration not stated) | -12.5 |
| CCc1nc2c(c(NC3CC3)n1)CCN(C(=O)Cc1nonc1C)CC2 | -8.76 |
| Cn1ccnc1-c1ccc(NCCC2COc3ccccc3O2)nn1 (configuration not stated) | -4.08 |
| CSCC(=O)N1CCCC(CCC(=O)N(C)CCc2ccccn2)C1 (configuration not stated) | 9.62 |
| CCc1nnc(CN(CC)C(=O)CCc2scnc2C)o1 | -2.72 |
| COc1ccc2c(c1)OCC(Cc1ccc(C)nc1N)C2 (configuration not stated) | 13.9 |
| CN(Cc1ncc[nH]1)CC1CCOc2ccccc2C1 (configuration not stated) | 2.48 |
| COc1ccc(F)c(CN2CCCC(O)(CNCc3ncc[nH]3)C2=O)c1 (configuration not stated) | -5.99 |

Source: ChEMBL document CHEMBL3507680, “University of Dundee, Gates Library screen for HepG2 cell viability”
